In series [1] the test system is cellular proteasome chymotrypsin-like (CT-L) in MOLT-4 human acute lymphoblastic leukemia T lymphoblasts. Put plainly: Proteosome inhibition in cells (AMC-LLVY fluorescent assay, FIGS. 9-14). The series is classed as cell-based. As to conditions: MOLT-4 cells, 1 hour incubation; read-out: cellular proteasome chymotrypsin-like (CT-L) IC50 inhibitory potency. How it is done:
MOLT-4 human acute lymphoblastic leukemia T lymphoblasts were grown for at least 6 passages in growth media (RPMI-1640 basal media supplemented with 10% FBS and 1×L-glutamine). […] Serial dilutions were performed in DMSO to produce concentrations covering 7 logs, and then each serial dilution was further diluted 40× in growth media. Dilutions were then added in equal volume to wells containing cells, further diluting compound concentrations by two-fold. Cells were incubated at 37° C. (5% CO2) for 1 hour, then spun at 1500 rpm for 5 mins at RT. Media was removed and the cells were washed with PBS 3 times. After the last wash, supernatant was removed and the cell pellets were frozen on dry ice. Cell pellets were thawed and then lysed by resuspending in 50 uL lysis buffer on ice (20 mM Tris-HCl, 5 mM EDTA, pH 8). The preparation was centrifuged at 1500 rpm for 5 mins and then utilized directly for AMC-LLVY fluorescent assay.

Series [2] has as its system HT-29 Colorectal Adenocarcinoma Xenograph Model. Put plainly: Second efficacy study in HT-29 xenograph model (FIG. 7). The series is classed as in vivo, SCID Beige Mice. An excerpt: (§1) Female Beige Severe Combined Immune Deficiency (SCID) mice (60 plus spares) were purchased from Harlan Laboratories (Livermore, Calif.) as 6- to 7-week-old mice. Following arrival, animals were weighed using an electronic balance (Ohaus SCOUT® PRO, Parsippany, N.J.), given a clinical examination to ensure that the animals were in good condition, and housed 5 per cage (prior to dosing). The animals were maintained in a HEPA-filtered environment in a Micro-VENT full-ventilation rodent housing system (Allentown Caging Equipment Co., Allentown, N.J.) providing at least 10 room air changes per hour Animal room controls were set to maintain temperature and relative humidity at 20° C.±1° C. and 50%±20%, respectively. Housing rooms were on a 12:12 light/dark cycle. Cages were autoclaved, and animals were bedded on SaniChip irradiated bedding 7990.BG (Harlan Teklad; Hayward, Calif.). Water was autoclaved and supplied ad libitum to each cage via water bottles. Irradiated 2018 Teklad Global 16% Protein Rodent Diet ((Harlan Teklad) supplied ad libitum to each cage.
Example 13 was formulated as described herein to the desired concentration. Carfilzomib was provided as CFZ-captisol (at 1 mg/mL). a powder sample of Example 13 was diluted to 30 mg/ml (Group 3) or 50 mg/ml (Group 4) in 10% ETOH/saline. Vehicle and CFZ-captisol were stored at 4° C. throughout the study. […]

In series [3] the test system is HT-29 Human Colorectal Adenocarcinoma Xenograph Model. Put plainly: Efficacy study in HT-29 xenograph model (FIG. 5, FIG. 6, Table 6). The series is classed as in vivo, SCID Beige Mice. The settings on record: for % Change compared to Vehicle: Day 40; for Day 0 Tumor Vol: baseline; for # of animals at day 40: n = 10 at start.
From the text: as §1
Example 13 was prepared as generally described above. The carfilzomib comparator compound was prepared as CFZ-captisol (at 1 mg/mL). A powder sample of example 13 was diluted to 30 mg/ml (Group 3) or 50 mg/ml (Group 3 beginning fourth dose) or 40 mg/ml (Group 4) in 10% ETOH/saline. Vehicle and CFZ-captisol were stored at 4° C. throughout the study. During the study, example 13 was inspected regularly for potential changes in the quality of the suspension; none were observed
NCI-HT29 (HT-29; ATCC® HTB-38™), a human colorectal adenocarcinoma cancer cell (CA) line, was purchased from ATCC (Manassas, Va.). Following receipt at the MGI, cells were grown in-house for 7 passages in RPMI 1640 and 10% fetal bovine serum, then used to generate frozen stocks. The cells were recovered from the frozen stocks and cultured as above. Following growth, the cells were spun down and resuspended at a concentration of 5E07 cells/mL in serum-free medium without additives, then combined 1:1 with Matrigel™ (Trevigen, Gaithersburg, Md.). At the time of implant, cells corresponded to MGI Passage 7 (MGP7).
At approximately 3 weeks prior to the projected staging day, mice were implanted by subcutaneous (SC) injection into the lower left abdominal flank with 200 μL (5.0E06 cells) per mouse of the freshly prepared HT29:Matrigel mixture. All procedures were carried out in HEPA-filtered laminar-flow hoods.
When the tumors reached a mean volume of approximately 200 mm^3 per mouse, forty animals with established tumors and moderate body weights were randomized into 4 treatment groups (n=10 mice per group). Starting on Day 0, animals were administered by once-weekly (qw) injection with vehicle (Group 1) or twice-weekly D1D2 injection (i.e., two adjacent days each week) with CFZ-captisol at 5 mpk (Group 2) or OP-59381 at 150 mg/kg (Groups 3). Starting with the fourth dose (i.e., after three week), dosing of Group 3 animals was increased to 250 mg/kg. Group 4 was dosed once-weekly (qw) injection with or OP-59381 (Example 13) at 200 mg/kg. All of these doses were administered as intravenous (IV) injections at dose volumes of 5 mL/kg. After the IV dosing for the seventh week (i.e., after Day 42 for Groups 1-4), the tumor treatment efficacy appeared to slow or cease altogether.

A short description of series [4]: PEG-carfilzomib mouse pK (FIG. 2). More on the design: species or system mice (Balb/c). The settings on record: in vivo, iv. How it is done:
Mean plasma concentration (μM) following intravenous administration of PEG-carfilzomib conjugate to female Balb/c mice (n=3). Dosage indicated is mg/kg of PEG-carfilzomib conjugate. […] Blood samples were collected at the indicated time points and plasma carfilzomib concentrations were measured in duplicate by LC/MS-MS. […] This standard carfilzomib represents the currently approved formulation for carfilzomib for treatment of multiple myeloma.

The conditions of series [5]: mouse, in vivo, iv, 5 mg/kg.
Method: The PEG carfilzomib compounds were administered to mice (Balb/c, male, n=9 per dose group) as an intravenous (i.v.) bolus at 5 mg/kg (equivalent to carfilzomib, dose volume 1 mL/kg). Blood samples from each mouse were collected at the indicated time points (0.5, 1, 2, 4, 6, 12, 16 and 24 hours post-dose) and 25 μL of the plasma samples were extracted by protein precipitation with 125 μL of acetonitrile containing D10-CFZ as an internal standard and then centrifuged. Carfilzomib concentrations were measured in the supernatant by LC-MS/MS using multiple reaction monitoring in the positive electrospray ionization mode. The lower limit of quantitation of the assay was 0.500 ng/mL.
For series [6] the following is noted: in humans; cited from earlier work.
Setting [7] is: Group 3, 150 mpk to 250 mpk (QW) IV.

As usually defined, the IC50 is the concentration that gives 50% inhibition.

“4-(4-Acetoxy-3-((1-PEG2K-1H-1,2,3-triazol-4-yl)methoxy)benzyl)-4-((4S,7S,10S,13S)-10-benzyl-7-isobutyl-15-methyl-13-((R)-2-methyloxirane-2-carbonyl)-2,5,8,11-tetraoxo-4-phenethyl-3,6,9,12-tetraazahexadecyl)morpholin-4-ium mesylate [Example 36]”: the IC50 in series [1] was approximately 21.8 nM.

On to “4-(4-Acetoxy-3-((1-PEG3K-1H-1,2,3-triazol-4-yl)methoxy)benzyl)-4-((4S,7S,10S,13S)-10-benzyl-7-isobutyl-15-methyl-13-((R)-2-methyloxirane-2-carbonyl)-2,5,8,11-tetraoxo-4-phenethyl-3,6,9,12-tetraazahexadecyl)morpholin-4-ium mesylate [Example 35]”, for which the IC50 in series [1] was approximately 9 nM.

Turning to “4-(4-acetoxy-3-((1-(5-((2-PEG2K-ethyl)amino)-5-oxopentyl)-1H-1,2,3-triazol-4-yl)methoxy)benzyl)-4-((4S,7S,10S,13S)-10-benzyl-7-isobutyl-15-methyl-13-((R)-2-methyloxirane-2-carbonyl)-2,5,8,11-tetraoxo-4-phenethyl-3,6,9,12-tetraazahexadecyl)morpholin-4-ium mesylate [Example 38]”, the IC50 in series [1] was approximately 21.8 nM.

For “4-(4-acetoxy-3-((1-(5-((2-PEG3K-ethyl)amino)-5-oxopentyl)-1H-1,2,3-triazol-4-yl)methoxy)benzyl)-4-((4S,7S,10S,13S)-10-benzyl-7-isobutyl-15-methyl-13-((R)-2-methyloxirane-2-carbonyl)-2,5,8,11-tetraoxo-4-phenethyl-3,6,9,12-tetraazahexadecyl)morpholin-4-ium mesylate [Example 37]”, the IC50 in series [1] was approximately 22.8 nM.

As to “4-((4S,7S,10S,13S)-10-Benzyl-7-isobutyl-15-methyl-13-((R)-2-methyloxirane-2-carbonyl)-2,5,8,11-tetraoxo-4-phenethyl-3,6,9,12-tetraazahexadecyl)-4-(3-((1-(PEG20K-4-Arm)-1H-1,2,3-triazol-4-yl)methoxy)-4-(pivaloyloxy)benzyl)morpholin-4-ium formate [Example 13]”, the “Day-41 tumor sizes, % of control” value in series [2] (Group 3, example 13 at 150 mg/kg IV (Table 7: QD × 2 (D1D2) × 6 weeks)) turned out to be 79.6%. Further, the “Day-41 tumor sizes, % of control” value in series [2] (Group 4, example 13 at 250 mg/kg IV, QW × 6 weeks) amounted to 61.8%. The “tumor growth vs. vehicle control by Day 19” value in series [3] (200 mpk Example 13, 5 mpk CFZ-captisol) is given as “significantly attenuated”. Besides, in series [3] (setting [7]), the “Day 40 Tumor Vol” value was 998.5 mm^3, the “% Change compared to Vehicle” value is on record as −59.6%, the “Day 0 Tumor Vol” value was found to be 95.5 mm^3 and the “# of animals at day 40” value turned out to be 9. Further, in series [3] (Group 4, 200 mpk (QW) IV), the “Day 40 Tumor Vol” value worked out at 1443.0 mm^3, the “% Change compared to Vehicle” value is reported as −41.6%, the “Day 0 Tumor Vol” value is given as 95.9 mm^3 and the “# of animals at day 40” value amounted to 7. Besides, the “plasma concentration relative to control” value in series [4] is reported as “multiple log-fold over that of the control”. In series [5], the AUC0-24 worked out at 3510 ng·h/mL, the T1/2 is 3.68 h, the “carfilzomib plasma concentration-time profile (FIG. 4)” value is “significantly higher plasma concentrations for that lengthy duration of time” and the “time carfilzomib is present in / released into the plasma post administration” value is 25 h.

Consider `CC(C)C[C@H](NC(=O)[C@H](CCc1ccccc1)NC(=O)CN1CCOCC1)C(=O)N[C@@H](Cc1ccccc1)C(=O)N[C@@H](CC(C)C)C(=O)[C@@]1(C)CO1` [carfilzomib, Carfilzomib], for which, in series [6], the half-life in-vivo is not above 1 h. Besides, the IC50 in series [1] is approximately 9.2 nM.

Source of the values: patent publication US10517954B2, “Pegylated carfilzomib compounds” (AMGEN INC., priority 2016, dated 2019).
